Paper PMC12516397 (ACS Medicinal Chemistry Letters, 2025)
No end group written: not given here.

Columns and labels:
[1] = pH 5
Vero E6 cells = settings: 72 h
[2] = target: SARS-CoV-2 main protease (Mpro) (Severe acute respiratory syndrome coronavirus 2, UniProt P0DTD1); test: biochemical

| Substance | Solubility [1] | CC50, cellular viability (Vero E6 cells) | IC50 [2] |
| --- | --- | --- | --- |
| SAFWQWFSKFLGR-NH2 [TLP-3] | limited peptide solubility | 14.91 µM | 7 ± 1.5 µM |
| FVQWFSKFLGRIL-NH2 [Temporin L, reference compound] |  | 6.78 µM | 39 ± 4.5 µM |
| FLQWFSKFLGRIL-NH2 [TLP-1] | limited peptide solubility | 4.65 µM | 11.4 ± 1.5 µM |
| SAYWQWFSKFLGRIL-NH2 [TLP-2] | limited peptide solubility | 2.56 µM | 11.5 ± 1 µM |
